Source: article PMC9231376, “Membrane Permeability and Aqueous Stability Study of Linear and Cyclic Diarylheptanoids from Corylus maxima” (Pharmaceutics, 2022)
Where “and” joins values, the source holds several entries; their conditions need not be identical. Equal values may be shown once.

Experiments:
[1] = Determination of aqueous stability (UHPLC-DAD, 4 h at 37 °C); assay type: physicochemical; conditions: for Aqueous stability at all three investigated pH values (in words): pH 1.2, 6.8 and 7.4, no notable change in peak areas, no degradation products detected; for Aqueous stability pH = 1.2: compound concentration after 4 h of incubation compared to the initial value: pH 1.2 simulated gastric fluid, n = 3; for Aqueous stability pH = 6.8: compound concentration after 4 h of incubation compared to the initial value: pH 6.8 simulated intestinal fluid; for Aqueous stability pH = 6.8: compound concentration after 4 h of incubation compared to the initial value / Aqueous stability pH = 7.4: compound concentration after 4 h of incubation compared to the initial value: n = 3, * p < 0.05 vs initial; for Aqueous stability pH = 7.4: compound concentration after 4 h of incubation compared to the initial value: pH 7.4 PBS; for Significance of decrease in compound concentration (in words): paired-sample t-test, p < 0.05, pH 1.2, 6.8, 7.4
Procedure: The aqueous solutions and buffers were prepared as follows: pH = 1.2, 1.0 g NaCl and 3.5 mL HCl dissolved in distilled water to achieve the final volume of 500.0 mL; pH = 6.8, 20.2 g Na2HPO4·7H2O and 3.4 g NaH2PO4·H2O dissolved in distilled water to achieve the final volume of 1000.0 mL, pH adjustment with 0.5 M NaOH or 0.5 M HCl; pH = 7.4, one PBS tablet (phosphate buffered saline, pH 7.4; Sigma Aldrich, St. Louis, MO, USA) dissolved in 200.0 mL of distilled water.
With the aforementioned buffers, 10 mM dimethyl sulfoxide stock solutions of the isolated compounds were diluted 100-fold. […] For degradable compounds, the above-mentioned validated UHPLC-DAD method was used to examine the change in compound concentration. All experiments were performed in triplicates (n = 3).

[2] = Parallel artificial membrane permeability assay for the blood–brain barrier (PAMPA-BBB); assay type: in vitro ADME; conditions: for log Pe PAMPA-BBB: donor pH 7.4, acceptor pH 7.4, 37 °C, 4 h, n = 9, Pe in cm/s, n.d. = not detected in the acceptor phase
Procedure: (§1) The test solutions were prepared with dimethyl sulfoxide (DMSO) at the concentration of 10.0 mM. These were diluted with phosphate buffers (pH = 7.4 for the PAMPA-BBB and pH = 6.8 for the PAMPA-GI) to obtain the donor solutions (297.0 μL buffer + 3.0 μL DMSO solution) and filtered through Phenex-RC 15 mm, 0.2 μm syringe filters (Gen-Lab Ltd., Budapest, Hungary). A parallel artificial membrane permeability assay (PAMPA) system was used to determine the effective permeability (Pe) for the compounds of interest. Each well of the top plate (96-well polycarbonate-based filter donor plates (Multiscreen™-IP, MAIPN4510, pore size 0.45 μm; Merck, Darmstadt, Germany) was coated with 5 μL of porcine polar brain lipid extract (PBLE) solution (16.0 mg PBLE + 8.0 mg cholesterol dissolved in 600.0 μL n-dodecane) for the PAMPA-BBB and with 5 μL of the mixture of 8.0 mg phosphatidylcholine + 4.0 mg cholesterol dissolved in 300.0 μL n-dodecane for PAMPA-GI. Thereafter, 150.0 μL of the filtrate was placed on the membrane. The bottom plate (96-well PTFE acceptor plates (MultiScreen Acceptor plate, MSSACCEPTOR; Millipore, Burlington, MA, USA)), was filled with a 300.0 μL buffer solution (0.01 M PBS buffer, pH = 7.4). The donor and acceptor plates were fit, and then the sandwich system was incubated at 37 °C for 4 h in a Stat-Fax 2200. After the incubation the PAMPA plates were separated and the compound concentrations in the donor (CD(t)) and acceptor (CA(t)) solutions, as well as in the donor solution at the zero time point (CD(0)) were determined by UHPLC-DAD. The effective permeability and the membrane retention in the PAMPA-BBB (1) and the PAMPA GI (2) experiments were calculated by the following equations [12]:(1) Pe=−2.303/A(t−τSS)·(VA·VD/VA+VD)·lg[1−(VA+VD/(1−MR)·VD)×(CA(t)/CD(0))] (2) Pe=−2.303/A(t−τSS))·(1/1+ra)·lg[−ra+(1+ra/1−MR)×(CD(t)/CD(0))] where Pe is the effective permeability coefficient (cm/s), A is the filter area (0.24 cm^2), VD and VA are the volumes in the donor (0.15 cm^3) and acceptor phases (0.30 cm^3), t is the incubation time (s), τSS is the time (s) to reach steady-state (240 s), CD(t) is the concentration (mol/cm^3) of the compound in the donor phase at time t, CD(0) is the concentration (mol/cm^3) of the compound in the donor phase at time 0, MR is the estimated membrane retention factor (the estimated mole fraction of solute lost to the membrane) and ra is the sink asymmetry ratio (gradient-pH-induced), defined as (3) ra=VD/VA×Pe(A→D)/Pe(D→A) (4) MR=1−CD(t)/CD(0)−VA/VDCA(t)/CD(0)
(§2) All experiments were performed in triplicates on three consecutive days (n = 9), caffeine standard was used as positive, while rutin as negative control. ClogP values were calculated by ChemAxon Marvin 22.3.

[3] = Parallel artificial membrane permeability assay for the gastrointestinal tract (PAMPA-GI); assay type: in vitro ADME; conditions: for log Pe PAMPA-GI: donor pH 6.8, acceptor pH 7.4, 37 °C, 4 h, n = 9, Pe in cm/s, n.d. = not detected in the acceptor phase; for Papp at 4 h, 100 µM: PAMPA, read-out: log Pe PAMPA-GI (converted)
Procedure: as §1, §2

Structure (SMILES) | Aqueous stability at all three investigated pH values (in words) [1] | Aqueous stability pH = 1.2: compound concentration after 4 h of incubation compared to the initial value [1] [%] | Aqueous stability pH = 6.8: compound concentration after 4 h of incubation compared to the initial value [1] | Aqueous stability pH = 7.4: compound concentration after 4 h of incubation compared to the initial value [1] | log Pe PAMPA-BBB [2] | log Pe PAMPA-GI [3] | Significance of decrease in compound concentration (in words) [1] | Papp at 4 h, 100 µM ([2]; PAMPA, pH 7.4, read-out: log Pe PAMPA-BBB (converted)) [nm/s] | Papp at 4 h, 100 µM [3] [nm/s] | Aqueous stability pH = 7.4: compound concentration after 4 h of incubation compared to the initial value ([1]; listed as 2) [%]
C[C@@H]1O[C@@H](Oc2c(-c3ccc(O)c(O)c3)oc3cc(O)cc(O)c3c2=O)[C@H](O)[C@H](O)[C@H]1O [quercitrin (10), quercitrin] | stable | 100.91 ± 0.53 | 102.35 ± 1.85% | 100.75 ± 0.96% | not detected in the acceptor phase | not detected in the acceptor phase | – | – | – | –
O=C(/C=C/CCc1ccc(O)cc1)CCc1ccc(O)cc1 [platyphyllenone (5), platyphyllenone] | – | 99.45 ± 1.05 | 94.98 ± 2.10% and 94.98 ± 2.10 * % | 90.40 ± 1.52% and 90.40 ± 1.52 * % | > −6.0 | greater than −5.0 | significant decrease both at pH 6.8 and 7.4 | 57.5 | 120 | –
O=C(/C=C/CCc1ccc(O)c(O)c1)CCc1ccc(O)c(O)c1 [hirsutenone (3), hirsutenone] | – | 99.63 ± 0.37 | – | 83.80 ± 2.41 * % | not detected in the acceptor phase | not detected in the acceptor phase | decreased significantly only at pH 7.4 | – | – | –
O=C(CCc1ccc(O)c(O)c1)C[C@H](CCc1ccc(O)c(O)c1)O[C@@H]1OC[C@@H](O)[C@H](O)[C@H]1O [oregonin (2), oregonin] | – | 98.67 ± 2.43 | 91.22 ± 3.01 * % | 59.93 ± 2.85 * % | not detected in the acceptor phase | not detected in the acceptor phase | significant decrease both at pH 6.8 and 7.4 | – | – | 59.93 ± 2.85
O=C1CCc2ccc(O)c(c2)-c2cc(ccc2O)C[C@H](O)[C@H](O)[C@H]1O [carpinontriol B (9), carpinontriol B] | stable | 102.75 ± 1.09 | 101.51 ± 1.75% | 103.28 ± 1.81% | – | – | – | – | 32.4 | –
COc1c2cc(c(OC)c1O)Oc1ccc(cc1)CCC(=O)C[C@H](O)/C=C\2 [giffonin F (8), giffonin F] | stable | 99.97 ± 1.01 | 102.68 ± 2.45% | 100.92 ± 2.02% | not detected in the acceptor phase | not detected in the acceptor phase | – | – | – | –
